Measured values as given in patent publication US20190307783A1, “USE OF ANTIVIRALS TO INHIBIT PROTOZOAN VIRUSES” (priority 2016, published 2019).
Entries after “also recorded” stand apart in the source; their conditions may differ. Like-named read-outs stand apart in the source and are kept apart here.

Legend:
Lgy LRV1 RDRP = Lgy LRV1 RDRP (Leishmania RNA virus 1 - 4, UniProt Q02382); test: RDRP assay of purified virions, [α-32P]UTP incorporation; assay type: biochemical, Leishmania RNA virus 1 (Lgy strain M4147); details: highest concentration tested 600 μM
Experimental: RDRP assays were carried out with LRV1 virions purified from Lgy strain M4147 by an established cesium chloride (CsCl) equilibrium ultracentrifugation procedure {Widmer, 1989; Widmer, 1990}. Following separation, virus particles were detected and quantified by their reactivity with an anti-capsid antibody (FIG. 21). We reproducibly observed three overlapping ‘peaks’, designated low-, medium-, and high-density (LD, MD and HD) in order of increasing density. […] The densities of the Lgy LRV1 LD, MD and HD peaks were 1.29, 1.36 and 1.41 g/mL, in good agreement with the densities of L-A virus particles bearing ssRNA- and dsRNA- (1.31 and 1.41 g/mL, respectively) {Esteban, 1986}. […]
To measure RDRP activity, purified virions were allowed to incorporate [α-^32P]UTP in the presence of the remaining nucleoside triphosphates for 1 hour, a time chosen to allow one round of transcription or replication of the viral genome {Widmer, 1990}. RNA was purified and separated by native gel electrophoresis, and the products were visualized and quantified. […]
RDRP activity of purified virions was measured using an [α-^32P]UTP incorporation assay described previously{Widmer, 1990}. […] The standards lane was excised and stained with ethidium bromide, while the radiolabeled products were detected by exposing an imaging plate for 24 hours and reading it with a FLA-5100 phosphoimager (Fujifilm, Tokyo, Japan). […]

[1] = test system: LRV1 (LgyLRV1 capsid levels); test: microbe, parasite or virus in culture; details: for activity at 100 µM / activity at 10 µM / activity at 40 µM: 48 h, read-out: Percent control (LRV1 capsid); for Effect on LRV1 (capsid) levels, in words: screen at 100 μM or maximum concentration permitted by solubility
Description: Because LRV1 (like most Totiviridae) is not shed from the cell (33, 34), we developed a flow cytometric assay to measure intracellular LRV1 capsid levels on a per cell basis. To detect LRV1 we used binding to a rabbit anti-LgyLRV1 capsid antiserum (35) followed by detection with Alexa Fluor488-conjugated goat anti-rabbit IgG.
(§1) Parasites were inoculated at 2×10^5 cells/mL into Schneider's media lacking supplemental adenine.
For capsid flow cytometry, 10^7 cells were fixed at room temperature using 2% (wt/vol) paraformaldehyde (Thermo Fisher Scientific) in PBS for 2 minutes. They were then incubated in blocking buffer [10% (vol/vol) normal goat serum (Vector Laboratories, Burlingame, Calif., USA) and 0.2% TRITON X-100 in PBS] for 30 minutes at room temperature. Anti-LgyLRV1 capsid antibody (35) was added (1:20,000 dilution) and incubated at room temperature for 1 hour. After two washes with PBS, cells were resuspended in 200 μL PBS with Alexa Fluor488-labeled goat anti-rabbit IgG (Alexafluor, Invitrogen; 1:1,000; or Thermo Fisher Scientific; 1:2,000 dilution), and incubated 1 hour at room temperature. After two additional washes with PBS, cells were subjected to flow cytometry, gating for single cells using forward and side scatter and the data analyzed using […] software (BD Bioscience, San Jose, Calif., USA).

L. guyanensis (LgyLRV1+) = test: Drug-inhibition test: growth of LgyLRV1+ parasites; assay type: cell-based, Leishmania guyanensis; details: for activity at 100 µM / activity at 10 µM / activity at 40 µM: Leishmania guyanensis, 48 h, read-out: Percent control (density); for Effect on L. guyanensis growth, in words: screen at 100 μM or maximum concentration permitted by solubility, 2 days
Experimental: These compounds were examined for their ability to inhibit the growth of LgyLRV1^+ and virus levels by LRV1 capsid flow cytometry.
Most studies were performed using luciferase-expressing transfectants of L. guyanensis (MHOM/BR/78/M4147) described previously [LRV1^+ LgyM4147/SSU:IR2SAT-LUC(b)c3 and LRV^−LgyM4147/pX63HYG/SSU:IR2SAT-LUC(b)c4] (54); these lines are termed LgyLRV1^+ and LgyLRV1^−, respectively. Two strains of LRV1^+L. braziliensis were examined: LEM2780 (MHOM/BO/90/CS) and LEM3874 (MHOM/BO/99/IMT252 no. 3) (12). Parasites were grown in Schneider's media (Sigma Aldrich, St. Louis, Mo., USA) prepared according to the supplier's instructions with pH adjusted to 6.5 and supplemented with 0.76 mM hemin, 2 μg/mL biopterin, 50 U/mL penicillin, 50 μg/mL streptomycin, and 10% (vol/vol) heat-inactivated FBS. Cell concentrations were determined using a Coulter Counter ([…], Indianapolis, Ind., USA).
as §1

[2] = LgyLRV1+, tested at 100 μM, 2 days
[3] = LgyLRV1+, tested at 100 μM, growth after 2 days
[4] = LgyLRV1+, tested at 10 μM, 2 days
[5] = LgyLRV1+, tested at 10 μM, growth after 2 days
[6] = LgyLRV1+, tested at 40 μM, 2 days
[7] = LgyLRV1+, tested at 40 μM, growth after 2 days

Lgy LRV1 RDRP, sequence (Q02382 whole entry): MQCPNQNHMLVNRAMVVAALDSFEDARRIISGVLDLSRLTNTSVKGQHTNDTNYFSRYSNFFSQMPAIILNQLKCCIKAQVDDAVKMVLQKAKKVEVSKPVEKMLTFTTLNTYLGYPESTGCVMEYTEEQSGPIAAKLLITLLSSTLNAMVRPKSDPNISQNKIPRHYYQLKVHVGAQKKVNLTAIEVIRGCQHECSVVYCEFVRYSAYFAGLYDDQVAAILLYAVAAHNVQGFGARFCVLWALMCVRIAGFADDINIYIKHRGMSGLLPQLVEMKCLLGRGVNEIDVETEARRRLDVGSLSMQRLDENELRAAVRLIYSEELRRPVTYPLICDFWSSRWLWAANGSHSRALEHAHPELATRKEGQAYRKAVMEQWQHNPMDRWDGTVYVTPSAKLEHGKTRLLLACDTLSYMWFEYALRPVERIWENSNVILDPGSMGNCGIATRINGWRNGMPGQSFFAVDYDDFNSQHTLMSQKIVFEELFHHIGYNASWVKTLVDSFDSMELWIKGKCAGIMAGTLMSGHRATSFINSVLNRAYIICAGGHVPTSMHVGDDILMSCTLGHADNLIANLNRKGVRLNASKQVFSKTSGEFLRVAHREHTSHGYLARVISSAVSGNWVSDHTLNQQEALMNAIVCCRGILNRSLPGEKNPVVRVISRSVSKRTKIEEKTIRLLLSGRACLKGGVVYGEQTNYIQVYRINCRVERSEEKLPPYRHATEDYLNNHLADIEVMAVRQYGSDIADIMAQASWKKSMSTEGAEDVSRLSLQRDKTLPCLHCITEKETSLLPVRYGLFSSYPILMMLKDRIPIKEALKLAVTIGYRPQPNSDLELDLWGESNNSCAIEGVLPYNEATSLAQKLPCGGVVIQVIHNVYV

Compound | activity at 100 µM [1] [%] | LRV1 capsid (geometric mean FU) [1, 2] [FU] | Density (cells/mL) (L. guyanensis (LgyLRV1+); [3]) | activity at 100 µM (L. guyanensis (LgyLRV1+); [3]) [%] | further results
Nc1ncnc2c1ncn2[C@H]1C[C@H](O)[C@@H](COP(=O)(O)OP(=O)(O)OP(=O)(O)O)O1 [dATP] |  |  |  |  | Inhibition of RDRP activity, in words (Lgy LRV1 RDRP): failed to inhibit; also recorded: completely inactive
Cc1cn([C@H]2C[C@H](N=[N+]=[N-])[C@@H](CO)O2)c(=O)[nH]c1=O [Zidovudine] | 74 | 196 | 1.81E+7 |  | activity at 100 µM (L. guyanensis (LgyLRV1+)): 107%
Nc1ncnc2c1ncn2[C@@H]1O[C@H](CO)[C@@H](O)[C@H]1F [2′-Fluoro-2′-deoxyadenosine] | 97 | 257 | 2.07E+7 | 123 | 
O=c1ccn([C@@H]2O[C@H](CO)[C@@H](O)[C@H]2F)c(=O)[nH]1 [2′-fluoro-2′-deoxyuridine, 2′-Fluoro-2′-deoxyuridine] | 88 | 234 | 2.22E+7 | 132 | 
Nc1nc2nn[nH]c2c(=O)[nH]1 [Compound 8-Azaguanine, 8-Azaguanine] | 100 |  | 5.68E+6 | 34 | LRV1 capsid (geometric mean FU) [1]: 264 FU
CCCC(=O)O[C@H]1CN2CC[C@H](O)[C@@H]2[C@@H](O)[C@@H]1O [Celgosivir, 6-O-butanoyl castanospermine] |  |  |  |  | activity at 10 µM [1]: 47%; LRV1 capsid (geometric mean FU) [1, 4]: 124 FU; activity at 10 µM (L. guyanensis (LgyLRV1+); [5]): 65%; Density (cells/mL) (L. guyanensis (LgyLRV1+); [5]): 1.09E+7 cells/mL
O=c1[nH]cnc2nn[nH]c12 [8-Azahypoxanthine] | 95 | 251 | 1.29E+7 | 77 | 
3′-Azido-3′-hydroxyethyl cyclobutyl adenine [Compound E8] |  | 277 | 1.86E+7 |  | Percent control (LRV1 capsid) [1, 2]: 104 Percent control; Percent control (density) (L. guyanensis (LgyLRV1+); [3]): 111 Percent control
Nc1nc(O)c2ncn(COC(CO)CO)c2n1 [Ganciclovir] |  |  |  |  | activity at 40 µM [1]: 75%; LRV1 capsid (geometric mean FU) [1, 6]: 198 FU; activity at 40 µM (L. guyanensis (LgyLRV1+); [7]): 58%; Density (cells/mL) (L. guyanensis (LgyLRV1+); [7]): 9.78E+6 cells/mL
CCOC(=O)[C@H]1O[C@@H]1C(=O)N[C@@H](CC(C)C)C(=O)NCCC(C)C [e64d, E64-d] |  |  |  |  | activity at 10 µM [1]: 37%; LRV1 capsid (geometric mean FU) [1, 4]: 97 FU; activity at 10 µM (L. guyanensis (LgyLRV1+); [5]): 90%; Density (cells/mL) (L. guyanensis (LgyLRV1+); [5]): 1.52E+07 cells/mL
[N-]=[N+]=N[C@]1(CO)O[C@@H](n2ccc(N)nc2=O)[C@H](O)[C@@H]1O [Compound R-1479, 4′-Azido cytidine] | 43 | 114 | 1.23E+7 | 73 | 
OC[C@H]1O[C@@H](n2cnc3c(O)ncnc32)[C@H](F)[C@@H]1O [2′-Fluoro-2′-deoxyinosine] | 96 | 255 | 2.41E+7 | 143 | 
C[C@H](Cn1cnc2c(N)ncnc21)OCP(=O)(O)O.O [Tenofovir, Tenofovir monohydrate] |  | 206 | 8.90E+6 |  | Percent control (LRV1 capsid) [1, 2]: 78 Percent control; Percent control (density) (L. guyanensis (LgyLRV1+); [3]): 53 Percent control
C[C@@]1(O)[C@H](O)[C@@H](CO)O[C@H]1n1cnc2c(=O)[nH]c(N)nc21 [2′C-Methyguanosine, 2′C-Methyl guanosine] |  | 252 | 2.25E+7 |  | Percent control (LRV1 capsid) [1, 2]: 95 Percent control; Effect on LRV1 (capsid) levels, in words ([1]; 2 days): little effect; Percent control (density) (L. guyanensis (LgyLRV1+); [3]): 133 Percent control; Effect on L. guyanensis growth, in words (L. guyanensis (LgyLRV1+)): little effect
Nc1ccn(C[C@@H](CO)OCP(=O)(O)O)c(=O)n1 [Cidofovir] |  |  |  |  | activity at 40 µM [1]: 240%; LRV1 capsid (geometric mean FU) [1, 6]: 637 FU; activity at 40 µM (L. guyanensis (LgyLRV1+); [7]): 59%; Density (cells/mL) (L. guyanensis (LgyLRV1+); [7]): 9.99E+6 cells/mL
C[C@@]1(O)[C@H](O)[C@@H](CO)O[C@H]1n1ccc(N)nc1=O [2′C-Methylcytidine, 2′C-Methyl cytidine] |  | 162 | 1.73E+7 |  | Percent control (LRV1 capsid) [1, 2]: 61 Percent control; Effect on LRV1 (capsid) levels, in words ([1]; 2 days): little effect; Percent control (density) (L. guyanensis (LgyLRV1+); [3]): 103 Percent control; Effect on L. guyanensis growth, in words (L. guyanensis (LgyLRV1+)): little effect
